Results from patent US20110293720A1, “PROGESTIN-CONTAINING DRUG DELIVERY SYSTEM” (BAYER SCHERING PHARMA AKTIENGESELLSCHAFT, priority 2008, published 2011).

Test: Particle size distribution (d50/d70/d90, volume distribution, e.g. laser diffraction)
Assay type: physicochemical
Details: micronized active ingredient before coating
Text: When used herein, the term “d90 particle size” is intended to mean that the particle size distribution is so that at least 90% of the particles have a particle diameter of less than the specified value, calculated from the volume distribution curve under the presumption of spherical particles. In a similar way, the term “d50 particle size” is intended to mean that the particle size distribution is so that at least 50% of the particles have a particle diameter of less than the specified value, calculated from the volume distribution curve under the presumption of spherical particles.
Therefore, it is important to note that whenever the terms “particle size”, “particle size distribution”, “particle diameter”, “d90”, “d50”, etc., are used herein it should be understood that the specific values or ranges used in connection therewith are always meant to be determined from the volume distribution curve under the presumption of spherical particles. The particle size distribution may be determined by various techniques, e.g. laser diffraction, and will be known to the person skilled in the art. […] The particle size distribution of the particles comprising the progestin and the protective agent, when incorporated in the wafer, may be determined by dissolving the film forming matrix, separation of the protected particles, and drying the protected particles. […]

C[C@]12CCC(=O)C=C1[C@@H]1C[C@@H]1[C@H]1[C@@H]3[C@@H]4C[C@@H]4[C@@]4(CCC(=O)O4)[C@@]3(C)CC[C@@H]12 [drospirenone]
d50: 2.2 μm | d90: 4.8 μm
